Key:
Assay in all cases: MIC by agar dilution method
Format in all cases: cell-based
[1] = test system: Ent faecalis durans 4931 H
Description: (§1) The minimum inhibitory concentration (MIC) against different test strains, determined by agar dilution method in the known manner, are given in Table 2.

Ent. equinus (V^R,T^R) = details: Vancomycin resistant, Teicoplanin resistant
Description: as §1

Ent. faecalis 4045H = test system: Ent. faecalis 4045H
Description: as §1

Ent. faecalis D-7F = test system: Ent. faecalis D-7F
Description: as §1

Ent. faecium D-65 = test system: Ent. faecium D-65
Description: as §1

[2] = test system: Ent. faecium P-1 (V^R,T^R); details: Vancomycin resistant, Teicoplanin resistant
Description: as §1

[3] = test system: Ent. faecium P-2 (V^R,T^R); details: Vancomycin resistant, Teicoplanin resistant
Description: as §1

[4] = test system: Ent. faecium R-1 (V^R,T^R); details: Vancomycin resistant, Teicoplanin resistant
Description: as §1

[5] = test system: Ent. faecium R-2 (V^R,T^R); details: Vancomycin resistant, Teicoplanin resistant
Description: as §1

Ent. hirae 55 = test system: Ent. hirae 55
Description: as §1

[6] = test system: Enterococcus faecalis ATCC 29212
Description: as §1

Escherichia coli 2231 = test system: Escherichia coli 2231
Description: as §1

S. aureus 20240 = test system: S. aureus 20240
Description: as §1

S. aureus 20424 = test system: S. aureus 20424
Description: as §1

S. aureus 3066 = S. aureus 3066 (resistant to methicillin)
Description: as §1

S. aureus Brussels 4115 = test system: S. aureus Brussels 4115
Description: as §1

S. aureus Brussels 810 = test system: S. aureus Brussels 810
Description: as §1

S. aureus Chantot 31153 = test system: S. aureus Chantot 31153
Description: as §1

S. aureus E 710 = test system: S. aureus E 710
Description: as §1

S. aureus E 712 = test system: S. aureus E 712
Description: as §1

S. aureus E-88 = test system: S. aureus E-88
Description: as §1

S. aureus Wein 11 = test system: S. aureus Wein 11
Description: as §1

S. aureus Wein 12 = test system: S. aureus Wein 12
Description: as §1

S. epi 6026 = test system: S. epi 6026
Description: as §1

S. epi. 109 = test system: S. epi. 109
Description: as §1

S. epi. 32965 = test system: S. epi. 32965
Description: as §1

S. epi. 5747 IIW = test system: S. epi. 5747 IIW
Description: as §1

S. epi. 8 Schah = test system: S. epi. 8 Schah
Description: as §1

S. epi. 823 (T^R) = details: Teicoplanin resistant
Description: as §1

S. epi. 825 (T^S) = details: Teicoplanin sensitive
Description: as §1

S. haemo. 712 (T^R) = details: Teicoplanin resistant
Description: as §1

S. haemo. 712 (T^S) = details: Teicoplanin sensitive
Description: as §1

[7] = test system: Staphylococcus aureus 209P
Description: as §1

Substance: methylsulfomycin I
- MIC [1]: 0.125 µg/mL
- MIC (Ent. equinus (V^R,T^R)): 0.125 µg/mL
- MIC (Ent. faecalis 4045H): 0.125 µg/mL
- MIC (Ent. faecalis D-7F): 0.125 µg/mL
- MIC (Ent. faecium D-65): 0.125 µg/mL
- MIC [2]: 0.125 µg/mL
- MIC [3]: 0.125 µg/mL
- MIC [4]: 0.125 µg/mL
- MIC [5]: 0.125 µg/mL
- MIC (Ent. hirae 55): 0.125 µg/mL
- MIC [6]: 0.125 µg/mL
- MIC (Escherichia coli 2231): > 100 µg/mL
- MIC (S. aureus 20240): 0.125 µg/mL
- MIC (S. aureus 20424): 0.125 µg/mL
- MIC (S. aureus 3066): 0.125 µg/mL
- MIC (S. aureus Brussels 4115): 0.125 µg/mL
- MIC (S. aureus Brussels 810): 0.125 µg/mL
- MIC (S. aureus Chantot 31153): 0.125 µg/mL
- MIC (S. aureus E 710): 0.125 µg/mL
- MIC (S. aureus E 712): 0.125 µg/mL
- MIC (S. aureus E-88): 0.125 µg/mL
- MIC (S. aureus Wein 11): 0.125 µg/mL
- MIC (S. aureus Wein 12): 0.125 µg/mL
- MIC (S. epi 6026): 0.125 µg/mL
- MIC (S. epi. 109): 0.125 µg/mL
- MIC (S. epi. 32965): 0.125 µg/mL
- MIC (S. epi. 5747 IIW): 0.125 µg/mL
- MIC (S. epi. 8 Schah): 0.125 µg/mL
- MIC (S. epi. 823 (T^R)): 0.125 µg/mL
- MIC (S. epi. 825 (T^S)): 0.125 µg/mL
- MIC (S. haemo. 712 (T^R)): 0.125 µg/mL
- MIC (S. haemo. 712 (T^S)): 0.125 µg/mL
- MIC [7]: 0.06 µg/mL
